Data reported in patent publication US6489469B1, “Method for storing or transporting erythritol solution” (Nikken Chemicals Co., Ltd., priority 1999, dated 2002).

Test system: Staphylococcus aureus IFO 13276
Experiment: Viable Count of Staphylococcus aureus IFO 13276 in Erythritol Solution
Format: cell-based
Procedure: Erythritol solutions of respective concentrations in the range of from 30 to 60% were prepared. To these were inoculated Staphylococcus aureus IFO 13276, Bacillus subtilis IFO 3134, and Escherichia coli IFO 3972 as bacteria, Candida albicans IFO 1549 and Saccharomyces cerevisiae ATCC 9763 as yeasts, Aspergillus niger IFO 6342, Aspergillus flavus IFO 6343, and Penicillium funiculosum IFO 6345 as fungi, respectively, in a population (concentration) of 10,000 cells/mL or more. After the inoculation, the solutions were stored at 30, 37, 45, 50, or 60° C., respectively, for 56 days and the number of viable cell was determined daily. The determination of the number of viable cell was performed by a method of coating 0.1 mL of appropriately diluted sample cultivation on an agar plate and cultivating and counting the number of viable cell (the number of colony) that grew after the cultivation.

OC[C@@H](O)[C@@H](O)CO [Erythritol Solution, erythritol]
The Number of Viable Cell (30° C., 30% w/w, Day 0): 10000 or more cells/mL | The Number of Viable Cell (30° C., 30% w/w, Day 3): 20400 cells/mL | The Number of Viable Cell (30° C., 30% w/w, Day 7): 11100 cells/mL | The Number of Viable Cell (30° C., 30% w/w, Day 14): 360 cells/mL | The Number of Viable Cell (30° C., 30% w/w, Day 28): 0 cells/mL | The Number of Viable Cell (30° C., 30% w/w, Day 56): 0 cells/mL | The Number of Viable Cell (30° C., 40% w/w, Day 0): 10000 or more cells/mL | The Number of Viable Cell (30° C., 40% w/w, Day 3): 8380 cells/mL | The Number of Viable Cell (30° C., 40% w/w, Day 7): 6200 cells/mL | The Number of Viable Cell (30° C., 40% w/w, Day 14): 4200 cells/mL | The Number of Viable Cell (30° C., 40% w/w, Day 28): 0 cells/mL | The Number of Viable Cell (30° C., 40% w/w, Day 56): 0 cells/mL | The Number of Viable Cell (45° C., 30% w/w, Day 0): 10000 or more cells/mL | The Number of Viable Cell (45° C., 30% w/w, Day 3): 0 cells/mL | The Number of Viable Cell (45° C., 30% w/w, Day 7): 0 cells/mL | The Number of Viable Cell (45° C., 30% w/w, Day 14): 0 cells/mL | The Number of Viable Cell (45° C., 30% w/w, Day 28): 0 cells/mL | The Number of Viable Cell (45° C., 30% w/w, Day 56): 0 cells/mL | The Number of Viable Cell (45° C., 40% w/w, Day 0): 10000 or more cells/mL | The Number of Viable Cell (45° C., 40% w/w, Day 3): 0 cells/mL | The Number of Viable Cell (45° C., 40% w/w, Day 7): 0 cells/mL | The Number of Viable Cell (45° C., 40% w/w, Day 14): 0 cells/mL | The Number of Viable Cell (45° C., 40% w/w, Day 28): 0 cells/mL | The Number of Viable Cell (45° C., 40% w/w, Day 56): 0 cells/mL | The Number of Viable Cell (45° C., 50% w/w, Day 0): 10000 or more cells/mL | The Number of Viable Cell (45° C., 50% w/w, Day 3): 0 cells/mL | The Number of Viable Cell (45° C., 50% w/w, Day 7): 0 cells/mL | The Number of Viable Cell (45° C., 50% w/w, Day 14): 0 cells/mL | The Number of Viable Cell (45° C., 50% w/w, Day 28): 0 cells/mL | The Number of Viable Cell (45° C., 50% w/w, Day 56): 0 cells/mL | The Number of Viable Cell (50° C., 30% w/w, Day 0): 10000 or more cells/mL | The Number of Viable Cell (50° C., 30% w/w, Day 3): 0 cells/mL | The Number of Viable Cell (50° C., 30% w/w, Day 7): 0 cells/mL | The Number of Viable Cell (50° C., 30% w/w, Day 14): 0 cells/mL | The Number of Viable Cell (50° C., 30% w/w, Day 28): 0 cells/mL | The Number of Viable Cell (50° C., 30% w/w, Day 56): 0 cells/mL | The Number of Viable Cell (50° C., 40% w/w, Day 0): 10000 or more cells/mL | The Number of Viable Cell (50° C., 40% w/w, Day 3): 0 cells/mL | The Number of Viable Cell (50° C., 40% w/w, Day 7): 0 cells/mL | The Number of Viable Cell (50° C., 40% w/w, Day 14): 0 cells/mL | The Number of Viable Cell (50° C., 40% w/w, Day 28): 0 cells/mL | The Number of Viable Cell (50° C., 40% w/w, Day 56): 0 cells/mL | The Number of Viable Cell (50° C., 50% w/w, Day 0): 10000 or more cells/mL | The Number of Viable Cell (50° C., 50% w/w, Day 3): 0 cells/mL | The Number of Viable Cell (50° C., 50% w/w, Day 7): 0 cells/mL | The Number of Viable Cell (50° C., 50% w/w, Day 14): 0 cells/mL | The Number of Viable Cell (50° C., 50% w/w, Day 28): 0 cells/mL | The Number of Viable Cell (50° C., 50% w/w, Day 56): 0 cells/mL | growth of the microbes (temperature of 50° C. or more): prevented from growing | time after which microbes died (temperature of 50° C. or more): 3 days
